The numbers were not newly measured in patent publication US7563785B2, “Quetiapine analogs and methods of use thereof” (Hypnion, Inc., priority 2004, dated 2009), which cites them from elsewhere.

As a reminder, the Ki is the equilibrium dissociation constant of an inhibitor or competing ligand from its target.

The data set concerns the target T1, human recombinant M1 expressed in CHO cells (Homo sapiens, UniProt P11229).
T1 construct: purchased PerkinElmer, Inc., Wellesley, Mass; host or cells: CHO cells
T1 sequence (P11229 1-460): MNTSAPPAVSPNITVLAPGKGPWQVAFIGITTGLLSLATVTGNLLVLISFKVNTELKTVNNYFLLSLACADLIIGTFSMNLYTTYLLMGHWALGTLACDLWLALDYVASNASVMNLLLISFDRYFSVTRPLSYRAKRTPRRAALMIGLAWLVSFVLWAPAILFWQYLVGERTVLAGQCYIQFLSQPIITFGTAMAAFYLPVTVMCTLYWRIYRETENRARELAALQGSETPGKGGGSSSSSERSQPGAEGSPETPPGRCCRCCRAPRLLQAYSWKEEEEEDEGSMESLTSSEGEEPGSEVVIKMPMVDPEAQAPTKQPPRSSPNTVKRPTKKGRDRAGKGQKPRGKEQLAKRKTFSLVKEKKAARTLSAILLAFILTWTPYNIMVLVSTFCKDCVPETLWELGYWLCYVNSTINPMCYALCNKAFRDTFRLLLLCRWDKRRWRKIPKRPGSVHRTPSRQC
To be noted: reference compounds; read-out: Ki of reference compounds in M1 binding assay.

`C[N+]1(C)CCC(OC(=O)C(c2ccccc2)c2ccccc2)CC1` [4-DAMP methiodide]: the Ki is 0.27 nM.
